{
  "source": "paper PMC7988496",
  "about": "“Sphingomyelin synthase-related protein generates diacylglycerol via the hydrolysis of glycerophospholipids in the absence of ceramide” (The Journal of Biological Chemistry, 2021)",
  "molecules": {"B1": {"name": "6× His-SMSr-ΔSAMD (Homo sapiens) (protein)", "chain": "HIDVLEEMGYNSDSPMGSMTPFISALQSTDWLCNGELSHDCDGPITDLNSDQYQYMNGKNKHSVRRLDPEYWKTILSCIYVFIVFGFTSFIMVIVHERVPDMQTYPPLPDIFLDSVPRIPWAFAMTEVCGMILCYIWLLVLLLHKHRSILLRRLCSLMGTVFLLRCFTMFVTSLSVPGQHLQCTGKIYGSVWEKLHRAFAIWSGFGMTLTGVHTCGDYMFSGHTVVLTMLNFFVTEYTPRSWNFLHTLSWVLNLFGIFFILAAHEHYSIDVFIAFYITTRLFLYYHTLANTRAYQQSRRARIWFPMFSFFECNVNGTVPNEYCWPFSKPAIMKRL"}},
  "key": {"SMSr-V5": {"target": "T1, SMSr-V5 (Homo sapiens, UniProt Q96LT4)", "T1 construct": "gene SAMD8", "T1 sequence (Q96LT4 1-415)": "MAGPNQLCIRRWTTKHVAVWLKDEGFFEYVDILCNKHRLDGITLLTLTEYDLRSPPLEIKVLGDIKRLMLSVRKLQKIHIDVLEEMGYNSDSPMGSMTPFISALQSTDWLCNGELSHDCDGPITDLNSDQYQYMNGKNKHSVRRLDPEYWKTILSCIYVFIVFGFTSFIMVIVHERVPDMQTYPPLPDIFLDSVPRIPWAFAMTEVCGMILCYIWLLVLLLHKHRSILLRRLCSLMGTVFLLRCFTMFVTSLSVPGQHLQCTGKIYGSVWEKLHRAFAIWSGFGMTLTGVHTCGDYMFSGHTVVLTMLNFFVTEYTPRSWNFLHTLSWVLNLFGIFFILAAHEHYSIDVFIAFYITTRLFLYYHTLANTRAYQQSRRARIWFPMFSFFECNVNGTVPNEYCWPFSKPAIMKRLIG", "test": "anti-V5 immunoprecipitate, […]:1-DG quantified by LC-MS/MS", "assay_type": "biochemical"}, "[1]": {"substrate": "CCCCCCCC/C=C\\CCCCCCCC(=O)O[C@H](COC(=O)CCCCCCCCCCCCCCC)COP(=O)(O)O", "test": "DDM/CHS mixed micellar assay, DG quantified by LC-MS/MS", "assay_type": "biochemical, Homo sapiens", "details": "PAP activity, no ceramide, pH 7.4, 37 °C, 2 h, 0.1% DDM, 0.02% CHS, surface-dilution Km also printed as 3.92 ± 0.536 mol%", "source_text": "DDM/CHS mixed micellar assay, DG quantified by LC-MS/MS on 6× His-SMSr-ΔSAMD"}},
  "data": [
    {"molecule": "CCCCCCCC/C=C\\CCCCCCCC(=O)O[C@H](COC(=O)CCCCCCCCCCCCCCC)COP(=O)(O)O", "note": "[16:0/18:1-PA, 1-palmitoyl-2-oleoyl (16:0/18:1)-PA]", "values": [
      {"measurement": "anti-V5 immunoprecipitate, 16:0/18:1-DG quantified by LC-MS/MS", "setting": "SMSr-V5; PAP activity", "value": "The SMSr expressed in the COS-7 cells exhibited PAP and PI-PLC activities"}
    ]},
    {"molecule": "CCCCCCCC/C=C\\CCCCCCCC(=O)O[C@H](COC(=O)CCCCCCCCCCCCCCC)COP(=O)(O)O[C@@H]1[C@H](O)[C@H](O)[C@@H](O)[C@H](O)[C@H]1O", "note": "[16:0/18:1-PI, 1-palmitoyl-2-oleoyl-sn-glycero-3-phosphoinositol]", "values": [
      {"measurement": "anti-V5 immunoprecipitate, 16:0/18:1-DG quantified by LC-MS/MS", "setting": "SMSr-V5; PI-PLC activity", "value": "The SMSr expressed in the COS-7 cells exhibited PAP and PI-PLC activities"}
    ]},
    {"molecule": "B1", "values": [
      {"measurement": "Km", "setting": "[1]", "value": "97.4 ± 13.3", "unit": "µM"}
    ]}
  ]
}
